The text below walks through data of PubChem BioAssay AID1963826 (Molecular Pharmacology Branch, DTP, NCI, 2024).

This assay deals with 926638-142-R-J1-PDC complex spheroid viability. Description: Anticancer human tumor 926638-142-R-J1-PDC patient-derived endometrial carcinoma cell line growth inhibition [POLQ]. The settings on record: for viability, T/C: stronger effect = lower value. The protocol:
Multicellular complex tumor spheroid response to Polymerase (POL) inhibitors (novobiocin, ART-558, RP6685) in combination with a variety of drugs and investigational agents in selected tumor cell lines
The POL inhibitors (novobiocin, ART-558, and RP6685) were evaluated both individually and in combination with standard of care and investigational anticancer small molecules within a complex spheroid model of solid tumors. . Complex spheroids include a stromal component modeled by human endothelial cells (HUVEC) and fibroblasts modeled by human mesenchymal stem cells (MSCs). The concentration ranges selected for each drug and investigational agent were based upon clinically achievable concentrations if the clinical Cmax of the agent was known.
Compounds. The drugs and investigational agents: novobiocin (NSC847541), ART-558 (NSC835418), RP-6685 (NSC848927), peposertib (NSC802822), ceralasertib (NSC780249), elimusertib (NSC800525), camonsertib (NSC841442), AZD-1390 (NSC803789), olaparib (NSC753686), talazoparib (NSC767125), rucaparib (NSC756644), sotorasib (NSC818433), MRTX-1133 (NSC836407), SN-38 (NSC673596), topotecan (NSC609699), epotoside (NSC141540), doxorubicin (NSC123127), gemcitabine (NSC613327), 5-fluorouracil (NSC19893), paclitaxel (NSC125973), vemurafenib (NSC761431), MSA-2 (NSC828583), SN-011 (NSC837082), adavosertib (NSC754352), prexasertib (NSC758257), carboplatin (NSC241240) and oxaliplatin (NSC266046), were obtained from the National Cancer Institute (NCI) Developmental Therapeutics Program Chemical Repository (21). The FDA-approved anticancer drug set is available from the Developmental Therapeutics Program at https://dtp.cancer.gov/organization/dscb/obtaining/. […] The stock solutions were prepared in dimethyl sulfoxide (DMSO, Sigma-Aldrich, St. Louis, MO, cat. D2650), except for the platinum compounds which were prepared in saline (Quality Biological, Gaithersburg, MD, cat. 114-055-101), at 800-fold the tested concentration and stored at -70 degrees C prior to their use. All drugs and investigational agents were tested over a range starting from a high concentration at or near the clinical Cmax and decreasing in half-log increments. If the clinical Cmax for an agent had not been determined, the highest concentration tested was 10 microM, except for SN-38, which was tested at a high concentration of 1 microM.
Cell Culture. All cells were maintained in an incubator at 37 degrees C and 5% CO2 with 95% humidity. The PDC lines were cultured according to standard operating procedures established by the NCI PDMR (https://pdmr.cancer.gov). Table 3 of the manuscript, lists the cell lines along with the number of the three cell types plated to form the mct-spheroids and media for tumor cell growth. After thawing, all PDC lines, except 997537-175-T-J1-PDC and 415267-285-R-J2-PDC, were cultured in Matrigel-coated flasks prepared with a working solution of 1X Ham's F-12 nutrient mix, without supplementation (Thermo Fisher Scientific, cat. 11765054), 100 U/mL penicillin-streptomycin (Thermo Fisher Scientific, cat. 15140122), and 2.5% Matrigel (Corning Inc., Corning, NY, cat. 354248) for the first three passages. The two PDC lines 997537-175-T-J1-PDC and 415267-285-R-J2-PDC were cultured on uncoated flasks. The 857933-349-R-J2-PDC line was cultured in 6C/Colon 1B media containing advanced DMEM/F-12 (Thermo Fisher Scientific, cat. 12634028), 10 mM HEPES (Thermo Fisher Scientific, cat. 15630080), 1X GlutaMAX supplement (Thermo Fisher Scientific, cat. 35050061), 0.1 mg/mL primocin (InvivoGen, San Diego, CA, cat. ant-pm-2), 10% defined fetal bovine serum, heat inactivated (HyClone Laboratories Inc., Logan, UT, cat. SH30070.03HI), 50% L-WRN conditioned media (ATCC, cat. CRL-3276), 1.25 mM N-Acetyl-L-cysteine (Sigma-Aldrich, cat. A9165), 10 mM nicotinamide (Sigma-Aldrich, cat. N0636), 1X B-27 supplement (Thermo Fisher Scientific, cat. 17504044), 1X N-2 supplement (Thermo Fisher Scientific, cat. […]

Values joined by “and” are separate entries in the source; they are usually repeats but may differ in a detail not shown here. Identical values can stand only once. Where only a bound is given, the exact number is not on record here.
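Also: spheroids exposed to drugs for one week before readout.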
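For viability, T/C in this document: percent viability relative to DMSO vehicle control wells set as 100%.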

Take `CCCS(=O)(=O)Nc1ccc(F)c(C(=O)c2c[nH]c3ncc(-c4ccc(Cl)cc4)cc23)c1F`: the viability, T/C (compound 0.0316 µM) was 104% and 88.4% and 90.9%; the viability, T/C (compound 0.1 µM) is 107% and 99.6% and 92.5%; the viability, T/C (compound 0.316 µM) is 96.6% and 97% and 86%; the viability, T/C (compound 1 µM) is 98.3% and 106% and 94.4%; the viability, T/C (compound 3.16 µM) was 88.2% and 76.9% and 82%; the viability, T/C (compound 10 µM) was 50.4% and 47.4% and 51.5%. Moreover, the IC50 (curve of compound) is > 10000 nM and 9030 nM.

Regarding `COc1cccc2c1C(=O)c1c(O)c3c(c(O)c1C2=O)CC(O)(C(=O)CO)CC3OC1CC(N)C(O)C(C)O1` (stereo not given), the viability, T/C (compound 0.0316 µM) is 77.2% and 83% and 80.9%; the viability, T/C (compound 0.1 µM) is 57.6% and 62.2% and 59.7%; the viability, T/C (compound 0.316 µM) is 17.8% and 23.1% and 18.7%; the viability, T/C (compound 1 µM) is 3.79% and 5.62% and 2.27%; the viability, T/C (compound 3.16 µM) is 0.22% and 0.29% and 0.23%; the viability, T/C (compound 10 µM) was 0.25% and 0.29% and 0.23%. For the same compound, the IC50 (curve of compound) is 124 nM and 143 nM and 131 nM.

With `Nc1ccn(C2OC(CO)C(O)C2(F)F)c(=O)n1` (stereo not given), the viability, T/C (compound 0.0316 µM) was 69.5% and 96.5% and 88.2%; the viability, T/C (compound 0.1 µM) is 66% and 60.7% and 62%; the viability, T/C (compound 0.316 µM) was 54.2% and 57.4% and 60.7%; the viability, T/C (compound 1 µM) is 52.6% and 52.3% and 53.2%; the viability, T/C (compound 3.16 µM) was 43.8% and 41.2% and 44%; the viability, T/C (compound 10 µM) was 30.5% and 27.8% and 24.4%. For the same compound, where the note is “curve of compound”, the concentration for half-maximal inhibition (IC50) was 1100 nM and 577 nM and 974 nM.

Turning to `CC1COCCN1c1cc(C2(O)CC3CCC(C2)O3)c2cnn(-c3ccn[nH]3)c2n1` (stereo not given), the viability, T/C was 91.2% and 96.2% and 105% (compound 0.0316 µM); 64.1% and 73.2% and 58.2% (compound 0.1 µM); 37% and 33.6% and 36.9% (compound 0.316 µM); 12.2% and 13.1% and 15.8% (compound 1 µM); 6.85% and 6.69% and 9.86% (compound 3.16 µM); 2.36% and 3.68% and 4.18% (compound 10 µM). Moreover, where the note is “curve of compound”, the IC50 is 178 nM and 198 nM and 156 nM.

As for `CC(C)n1c(=O)n(C)c2cnc3cc(F)c(-c4ccc(OCCCN5CCCCC5)nc4)cc3c21` + Cc1cccc(N(C)C(=O)C2C(O)CCN2c2nc(C)cc(C(F)(F)F)c2C#N)c1, the IC50 by setting is: (curve of first compound, second compound 0.0316 µM) greater than 10000 nM; (curve of first compound, second compound 0.1 µM) greater than 10000 nM; (curve of first compound, second compound 0.316 µM) greater than 10000 nM; (curve of first compound, second compound 1 µM) greater than 10000 nM; (curve of first compound, second compound 3.16 µM) greater than 10000 nM; (curve of first compound, second compound 10 µM) 9830 nM. The viability, T/C runs as follows: (second compound 0.0316 µM, first compound 0.0316 µM) 86.5%; (second compound 0.0316 µM, first compound 0.1 µM) 88.5%; (second compound 0.0316 µM, first compound 0.316 µM) 87.6%; (second compound 0.0316 µM, first compound 1 µM) 88.9%; (second compound 0.0316 µM, first compound 3.16 µM) 94.1%; (second compound 0.0316 µM, first compound 10 µM) 62.1%. Besides, the viability, T/C reads like this: (second compound 0.1 µM, first compound 0.0316 µM) 94.6%; (second compound 0.1 µM, first compound 0.1 µM) 81.8%; (second compound 0.1 µM, first compound 0.316 µM) 103%; (second compound 0.1 µM, first compound 1 µM) 86.7%; (second compound 0.1 µM, first compound 3.16 µM) 79.5%; (second compound 0.1 µM, first compound 10 µM) 50.9%. Further, the viability, T/C reads like this: (second compound 0.316 µM, first compound 0.0316 µM) 104%; (second compound 0.316 µM, first compound 0.1 µM) 123%; (second compound 0.316 µM, first compound 0.316 µM) 89.7%; (second compound 0.316 µM, first compound 1 µM) 102%; (second compound 0.316 µM, first compound 3.16 µM) 93.7%; (second compound 0.316 µM, first compound 10 µM) 52.3%. For the same compound, the viability, T/C by setting is: (second compound 1 µM, first compound 0.0316 µM) 92.8%; (second compound 1 µM, first compound 0.1 µM) 88.9%; (second compound 1 µM, first compound 0.316 µM) 78.5%; (second compound 1 µM, first compound 1 µM) 102%; (second compound 1 µM, first compound 3.16 µM) 107%; (second compound 1 µM, first compound 10 µM) 72.3%. For the same compound, the viability, T/C is 89.5% (second compound 3.16 µM, first compound 0.0316 µM); 95.8% (second compound 3.16 µM, first compound 0.1 µM); 92% (second compound 3.16 µM, first compound 0.316 µM); 104% (second compound 3.16 µM, first compound 1 µM); 74% (second compound 3.16 µM, first compound 3.16 µM); 65.2% (second compound 3.16 µM, first compound 10 µM). Further, the viability, T/C runs as follows: (second compound 10 µM, first compound 0.0316 µM) 103%; (second compound 10 µM, first compound 0.1 µM) 89.2%; (second compound 10 µM, first compound 0.316 µM) 107%; (second compound 10 µM, first compound 1 µM) 87%; (second compound 10 µM, first compound 3.16 µM) 76.1%; (second compound 10 µM, first compound 10 µM) 49.1%.
